Laboratory results as given in ChEMBL document CHEMBL1149346, “Activity of nitrogen-containing and non-nitrogen-containing bisphosphonates on tumor cell lines” (J Med Chem, 2006).

Experiments:
Type in all cases: functional, cell-based
NCI-H460 = assay: Antiproliferative activity against human NCI-H460 cell line by MTT assay
MCF7 = assay: Antiproliferative activity against human MCF7 cell line by MTT assay
SF-268 = assay: cells; conditions: Homo sapiens
Description: Antiproliferative activity against human SF-268 cell line by MTT assay

13762 = assay: Antiproliferative activity against rat 13762 cell line

| IC50 (NCI-H460) [µM] | IC50 (MCF7) [µM] | IC50 (SF-268) [µM] | Structure (SMILES) | IC50 13762 [µM] |
| --- | --- | --- | --- | --- |
| 211 | 191 | 111 | O=P([O-])(O)C(O)(C[n+]1ccc(Cc2ccccc2)cc1)P(=O)(O)O (centres undefined) |  |
| 69.9 | 79.4 | 46.8 | O=P([O-])(O)C(O)(C[n+]1ccccc1)P(=O)(O)O (centres undefined) |  |
| 71.7 | 50.7 | 45.8 | CCc1ccc[n+](CC(O)(P(=O)([O-])O)P(=O)(O)O)c1 (centres undefined) |  |
| 52.2 | 44.2 | 27.2 | O=P([O-])(O)C(O)(C[n+]1cccc(-c2ccccc2)c1)P(=O)(O)O (centres undefined) |  |
| 66.8 | 98.1 | 52.6 | Cc1ccc[n+](CC(O)(P(=O)([O-])O)P(=O)(O)O)c1 (centres undefined) |  |
| 74.4 | 37.2 | 30.7 | O=P([O-])(O)C(O)(C[n+]1cccc(-c2ccc(O)cc2)c1)P(=O)(O)O (centres undefined) |  |
| 65.8 | 58.1 | 49.3 | O=P([O-])(O)C(O)(C[n+]1cccc(F)c1)P(=O)(O)O (centres undefined) |  |
| 5.6 | 17.3 | 6.5 | O=P([O-])(O)C(O)(C[n+]1cccc(-c2ccc(F)cc2)c1)P(=O)(O)O (centres undefined) |  |
| 270 | 289 | 257 | Cc1ccc2ccc[n+](CC(O)(P(=O)([O-])O)P(=O)(O)O)c2c1 (centres undefined) |  |
| > 10000 | > 10000 | > 10000 | CN(C)c1cc[n+](CC(O)(P(=O)([O-])O)P(=O)(O)O)cc1 (centres undefined) |  |
| 62 | 38.1 | 44.6 | Cc1ccc[n+](CC(P(=O)([O-])O)P(=O)(O)O)c1 (centres undefined) |  |
| > 10000 | > 10000 | > 10000 | O=P([O-])(O)C(O)(C[n+]1ccc(-c2ccncc2)cc1)P(=O)(O)O (centres undefined) |  |
| 58.1 | 121 | 58.3 | O=P([O-])(O)C(O)(C[n+]1cccc(Cl)c1)P(=O)(O)O (centres undefined) |  |
| 644 | 409 | 436 | COc1cc[n+](CC(O)(P(=O)([O-])O)P(=O)(O)O)cc1 (centres undefined) |  |
| 18.5 | 69.2 | 67 | O=P([O-])(O)C(O)(C[n+]1cccc(Cc2ccccc2)c1)P(=O)(O)O (centres undefined) |  |
| 14.8 | 21.4 | 13.1 | CCCCc1ccc[n+](CC(O)(P(=O)([O-])O)P(=O)(O)O)c1 (centres undefined) |  |
| 54.5 | 33.5 | 55.7 | O=P([O-])(O)C(O)(C[n+]1cccc(Br)c1)P(=O)(O)O (centres undefined) |  |
| 53.7 | 123 | 89.3 | O=P([O-])(O)C(C[n+]1cccc(I)c1)P(=O)(O)O (centres undefined) |  |
| 33 | 26.5 | 24.1 | CCCCc1ccc[n+](CC(P(=O)([O-])O)P(=O)(O)O)c1 (centres undefined) |  |
| 23.2 | 14.5 | 10.4 | O=P([O-])(O)C(O)(C[n+]1cccc(-c2ccc(C(F)(F)F)cc2)c1)P(=O)(O)O (centres undefined) |  |
| 279 | 260 | 261 | Cc1ccc2c(ccc[n+]2CC(O)(P(=O)([O-])O)P(=O)(O)O)c1 (centres undefined) |  |
| 62 | 42.6 | 44.8 | CCc1ccc[n+](CC(P(=O)([O-])O)P(=O)(O)O)c1 (centres undefined) |  |
| 59 | 132 | 72.7 | O=P([O-])(O)C(C[n+]1cccc(Cl)c1)P(=O)(O)O (centres undefined) |  |
| 297 | 288 | 260 | O=P([O-])(O)C(O)(C[n+]1ccc2ccccc2c1)P(=O)(O)O (centres undefined) |  |
| 312 | 304 | 290 | O=P([O-])(O)C(O)(C[n+]1ccc(-c2ccccc2)cc1)P(=O)(O)O (centres undefined) |  |
| 43.7 | 35.7 | 23.3 | O=P(O)(O)C(O)(Cc1cccnc1)P(=O)(O)O [RISEDRONIC ACID] | > 40 |

The next lines start with the compound.

| Structure (SMILES) | IC50 (NCI-H460) [µM] | IC50 (MCF7) [µM] | IC50 (SF-268) [µM] | IC50 13762 [µM] |
| --- | --- | --- | --- | --- |
| O=P(O)(O)C(Cc1ccc(Br)c(Br)c1)P(=O)(O)O | 446 | 533 | 349 |  |
| CC(C)OC(=O)OCOP(=O)(OCOC(=O)OC(C)C)C(Cc1cccc(C#N)c1)P(=O)(OCOC(=O)OC(C)C)OCOC(=O)OC(C)C | 22.6 | 58.6 | 7.77 |  |
| CC(C)(C)C(=O)OCOP(=O)(OCOC(=O)C(C)(C)C)C(Cc1ccc(Br)c(Br)c1)P(=O)(OCOC(=O)C(C)(C)C)OCOC(=O)C(C)(C)C | 0.62 | 0.22 | 0.65 |  |
| CC(C)OC(=O)OCOP(=O)(OCOC(=O)OC(C)C)C(Cc1ccc(Cl)c(Cl)c1)P(=O)(OCOC(=O)OC(C)C)OCOC(=O)OC(C)C | 4.85 | 1.97 | 4.78 |  |
| CC(C)OC(=O)OCOP(=O)(OCOC(=O)OC(C)C)C(Cc1ccc(F)c(F)c1)P(=O)(OCOC(=O)OC(C)C)OCOC(=O)OC(C)C | 20.1 | 15.2 | 28.3 |  |
| CC(C)(C)C(=O)OCOP(=O)(OCOC(=O)C(C)(C)C)C(Cc1cccc(-c2cccc(-c3ccccc3)c2)c1)P(=O)(OCOC(=O)C(C)(C)C)OCOC(=O)C(C)(C)C | 1.64 | 2.62 | 2.38 |  |
| O=P([O-])(O)C(C[n+]1ccc(-c2ccccc2-c2ccccc2)cc1)P(=O)(O)O (centres undefined) | 284 | 280 | 243 |  |
| N#Cc1cccc(CC(P(=O)(O)O)P(=O)(O)O)c1 | > 1000 | > 1000 | > 1000 |  |
| CC(C)(C)C(=O)OCOP(=O)(OCOC(=O)C(C)(C)C)C(CNc1ccccn1)P(=O)(OCOC(=O)C(C)(C)C)OCOC(=O)C(C)(C)C | 5.95 | 6.44 | 7.89 |  |
| O=P(O)(O)C(O)(CCc1cccc(-c2ccccc2-c2ccccc2)c1)P(=O)(O)O | 133 | 146 | 143 |  |
| O=P([O-])(O)C(C[n+]1cccc(Br)c1)P(=O)(O)O (centres undefined) | 92.9 | 143 | 109 |  |
| O=P([O-])(O)C(C[n+]1cccc(S(=O)(=O)N2CCCC2)c1)P(=O)(O)O (centres undefined) | > 10000 | > 10000 | > 10000 |  |
| O=P(O)(O)C(O)(Cc1cccc(-c2cccc(-c3ccccc3)c2)c1)P(=O)(O)O | 140 | 152 | 130 |  |
| O=P(O)(O)C(O)(CCc1cccc(-c2ccc(-c3ccccc3)cc2)c1)P(=O)(O)O | 132 | 196 | 175 |  |
| O=P(O)(O)C(CNCc1cccc(-c2ccccc2)c1)P(=O)(O)O | 5.73 | 46 | 6.18 |  |
| O=P(O)(O)C(O)(c1cccc(-c2cccc(-c3ccccc3)c2)c1)P(=O)(O)O | 285 | 310 | 303 |  |
| O=P([O-])(O)C(C[n+]1cccc(-c2ccccc2-c2ccccc2)c1)P(=O)(O)O (centres undefined) | 208 | 236 | 232 |  |
| O=P(O)(O)C(O)(Cc1cccc(-c2ccccc2-c2ccccc2)c1)P(=O)(O)O | 86.1 | 92.7 | 58 |  |
| O=P([O-])(O)C(C[n+]1ccc(-c2cccc(-c3ccccc3)c2)cc1)P(=O)(O)O (centres undefined) | > 10000 | > 10000 | > 10000 |  |

| Structure (SMILES) | IC50 (NCI-H460) [µM] | IC50 (MCF7) [µM] | IC50 (SF-268) [µM] | IC50 13762 [µM] |
| --- | --- | --- | --- | --- |
| O=P(O)(O)C(O)(Cc1ccc(-c2ccccc2-c2ccccc2)cc1)P(=O)(O)O | 329 | 1060 | 475 |  |
| O=P([O-])(O)C(C[n+]1cccc(C(F)(F)F)c1)P(=O)(O)O (centres undefined) | 142 | 129 | 132 |  |
| O=P(O)(O)C(CNc1ccncc1)P(=O)(O)O | 12.6 | 22.7 | 14.4 |  |
| O=P(O)(O)C(CNc1ccccn1)P(=O)(O)O | 63.7 | 223 | 147 |  |
| O=P([O-])(O)C(C[n+]1ccc2ccccc2c1)P(=O)(O)O (centres undefined) | > 10000 | > 10000 | > 10000 |  |
| CC(C)(C)C(=O)OCOP(=O)(OCOC(=O)C(C)(C)C)C(Cc1ccc(Cl)c(Cl)c1)P(=O)(OCOC(=O)C(C)(C)C)OCOC(=O)C(C)(C)C | 2.7 | 0.34 | 1.43 |  |
| O=P([O-])(O)C(C[n+]1ccc(C(F)(F)F)cc1)P(=O)(O)O (centres undefined) | > 10000 | > 10000 | > 10000 |  |
| O=P([O-])(O)C(C[n+]1ccccc1)P(=O)(O)O (centres undefined) | 109 | 72.3 | 65.1 |  |
| O=P(O)(O)C(O)(CCc1cccc(-c2cccc(-c3ccccc3)c2)c1)P(=O)(O)O | 46.9 | 43.9 | 44.7 |  |
| O=P(O)(O)C(O)(Cc1ccc(-c2cccc(-c3ccccc3)c2)cc1)P(=O)(O)O | 413 | 412 | 620 |  |
| O=P([O-])(O)C(C[n+]1ccc(-c2ccc(-c3ccccc3)cc2)cc1)P(=O)(O)O (centres undefined) | > 10000 | > 10000 | > 10000 |  |
| O=P([O-])(O)C(C[n+]1cccc(-c2ccc(-c3ccccc3)cc2)c1)P(=O)(O)O (centres undefined) | 21.5 | 25.1 | 23.2 |  |
| O=P([O-])(O)C(C[n+]1ccc(Cc2ccccc2)cc1)P(=O)(O)O (centres undefined) | 141 | 125 | 133 |  |
| O=P([O-])(O)C(C[n+]1cccc(-c2ccccc2)c1)P(=O)(O)O (centres undefined) | 41.3 | 34.6 | 43.6 |  |
| O=P(O)(O)C(Nc1ncccc1OCc1ccccc1)P(=O)(O)O | 3210 | 339 | 399 |  |
| CCC(C)CNC(P(=O)(O)O)P(=O)(O)O (centres undefined) | 469 | 447 | 301 |  |
| CN(CCCCc1ccccc1)CCC(O)(P(=O)(O)O)P(=O)(O)O | 22.9 | 82.5 | 49.2 |  |
| NCCC(O)(P(=O)(O)O)P(=O)(O)O [PAMIDRONIC ACID] | 71.8 | 141 | 408 | 33.6 |
| O=P(O)(O)C(O)(Cn1ccnc1)P(=O)(O)O [ZOLEDRONIC ACID] | 11.7 | 27.7 | 14.3 |  |
